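A five-concentration, 48-hour dose response in 96-well plates underlies each endpoint, interpolated linearly between surrounding concentrations. The concentration for 50% growth inhibition is given as GI50.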 Activity calls are given as the source filed them. Rule as the data show it: active = GI50 up to about 1.1 µM and inactive = higher.
Columns and labels:
Assay in all cases: DTP human tumour cell line panel, 48 h
A549 = tested on: A549
COLO 205 = tested on: COLO 205
EKVX = tested on: EKVX
HL-60 = tested on: HL-60
HOP-92 = tested on: HOP-92
HT-29 = tested on: HT-29
IGROV-1 = tested on: IGROV-1
Malme-3M = tested on: Malme-3M
NCI-H23 = tested on: NCI-H23
SF-539 = tested on: SF-539
SK-MEL-28 = tested on: SK-MEL-28
SN12C = tested on: SN12C
SNB-19 = tested on: SNB-19
SNB-75 = tested on: SNB-75
UACC-257 = tested on: UACC-257
UO-31 = tested on: UO-31
SK-MEL-5 = tested on: SK-MEL-5

| Compound | GI50 (A549) | GI50 (COLO 205) | GI50 (EKVX) | GI50 (HL-60) | GI50 (HOP-92) | GI50 (HT-29) | GI50 (IGROV-1) | GI50 (Malme-3M) | GI50 (NCI-H23) | GI50 (SF-539) | GI50 (SK-MEL-28) | GI50 (SN12C) | GI50 (SNB-19) | GI50 (SNB-75) | GI50 (UACC-257) | GI50 (UO-31) | GI50 (SK-MEL-5) |
| --- | --- | --- | --- | --- | --- | --- | --- | --- | --- | --- | --- | --- | --- | --- | --- | --- | --- |
| CCNc1nc2c(=O)n(C)c(=O)n(C)c2s1 | > 100 µM (inactive) | > 100 µM (inactive) | > 100 µM (inactive) | > 100 µM (inactive) | > 100 µM (inactive) | > 100 µM (inactive) | > 100 µM (inactive) | > 100 µM (inactive) | > 100 µM (inactive) | > 100 µM (inactive) | > 100 µM (inactive) | > 100 µM (inactive) | > 100 µM (inactive) | > 100 µM (inactive) | > 100 µM (inactive) | > 100 µM (inactive) | – |
| O=C(/C=C/c1ccc(OCCCOc2ccc(/C=C/C(=O)c3ccc(Cl)cc3)cc2)cc1)c1ccc(Cl)cc1 | > 100 µM (inactive) | > 100 µM (inactive) | > 100 µM (inactive) | > 100 µM (inactive) | > 100 µM (inactive) | > 100 µM (inactive) | > 100 µM (inactive) | > 100 µM (inactive) | > 100 µM (inactive) | > 100 µM (inactive) | > 100 µM (inactive) | > 100 µM (inactive) | > 100 µM (inactive) | 34.6 µM (inactive) | > 100 µM (inactive) | – | > 100 µM (inactive) |
| CC1CCC2(OC1)OC1CC3C4CCC5CC(O)CCC5(C)C4CC(=O)OC3(C)C1C2C (stereo unspecified) | > 100 µM (inactive) | > 100 µM (inactive) | > 100 µM (inactive) | > 100 µM (inactive) | > 100 µM (inactive) | > 100 µM (inactive) | > 100 µM (inactive) | > 100 µM (inactive) | > 100 µM (inactive) | > 100 µM (inactive) | > 100 µM (inactive) | > 100 µM (inactive) | > 100 µM (inactive) | > 100 µM (inactive) | > 100 µM (inactive) | > 100 µM (inactive) | > 100 µM (inactive) |
| CC1=CC(=O)N(c2c(C)cccc2Cl)C(C)N1 (stereo unspecified) | > 100 µM (inactive) | > 100 µM (inactive) | > 100 µM (inactive) | > 100 µM (inactive) | > 100 µM (inactive) | > 100 µM (inactive) | > 100 µM (inactive) | > 100 µM (inactive) | > 100 µM (inactive) | > 100 µM (inactive) | > 100 µM (inactive) | > 100 µM (inactive) | > 100 µM (inactive) | > 100 µM (inactive) | > 100 µM (inactive) | > 100 µM (inactive) | > 100 µM (inactive) |
| C=C1C=CC2(Br)OC3CC(C)(Cl)C(Br)CC13C2(C)C (stereo unspecified) | 26.4 µM (inactive) | 16.1 µM (inactive) | 24.5 µM (inactive) | 15.2 µM (inactive) | 21.2 µM (inactive) | 18.1 µM (inactive) | 28.9 µM (inactive) | 18.2 µM (inactive) | 19.1 µM (inactive) | 18.5 µM (inactive) | 20 µM (inactive) | 18.9 µM (inactive) | 27 µM (inactive) | 25.2 µM (inactive) | 18.5 µM (inactive) | 20.7 µM (inactive) | 17.3 µM (inactive) |
| COc1cc(C(O)C(=O)c2nc3ccc([N+](=O)[O-])cc3nc2O)ccc1O (stereo unspecified) | 98.9 µM (inactive) | > 100 µM (inactive) | 90.6 µM (inactive) | 70.5 µM (inactive) | – | > 100 µM (inactive) | > 100 µM (inactive) | > 100 µM (inactive) | > 100 µM (inactive) | 58.1 µM (inactive) | 26.4 µM (inactive) | > 100 µM (inactive) | > 100 µM (inactive) | – | > 10 µM (inactive) | > 100 µM (inactive) | 81.1 µM (inactive) |
| Cc1ccc(C)c(NC(=O)/C(=N\NC(N)=S)C(C#N)c2ccccc2)c1 (stereo unspecified) | > 100 µM (inactive) | > 100 µM (inactive) | > 100 µM (inactive) | > 100 µM (inactive) | > 100 µM (inactive) | > 100 µM (inactive) | > 100 µM (inactive) | > 100 µM (inactive) | > 100 µM (inactive) | > 100 µM (inactive) | > 100 µM (inactive) | > 100 µM (inactive) | > 100 µM (inactive) | > 100 µM (inactive) | > 100 µM (inactive) | > 100 µM (inactive) | > 100 µM (inactive) |
| O=C(c1ccccc1)C(c1ccccc1)C1(O)C(=O)Nc2ccc([N+](=O)[O-])cc21 (stereo unspecified) | > 100 µM (inactive) | 26.2 µM (inactive) | > 100 µM (inactive) | 42.9 µM (inactive) | 31.8 µM (inactive) | – | > 100 µM (inactive) | > 100 µM (inactive) | 92 µM (inactive) | > 100 µM (inactive) | > 100 µM (inactive) | 62.4 µM (inactive) | > 100 µM (inactive) | 61 µM (inactive) | – | 47.6 µM (inactive) | 24 µM (inactive) |
| COc1cccc(NC(=O)C(C)(C)C)c1C=O | 71.1 µM (inactive) | > 100 µM (inactive) | 35.3 µM (inactive) | 26.7 µM (inactive) | 54 µM (inactive) | 40.7 µM (inactive) | 56.1 µM (inactive) | > 100 µM (inactive) | 48.3 µM (inactive) | 68.4 µM (inactive) | > 100 µM (inactive) | 63.1 µM (inactive) | 51.2 µM (inactive) | 39.3 µM (inactive) | 65.8 µM (inactive) | 34.3 µM (inactive) | 88.1 µM (inactive) |
| O=C(Nc1cc(Cl)c(Cl)cc1Cl)C(=O)C1C(=O)NC(=S)NC1=O | > 100 µM (inactive) | > 100 µM (inactive) | > 100 µM (inactive) | > 100 µM (inactive) | > 100 µM (inactive) | > 100 µM (inactive) | > 100 µM (inactive) | > 100 µM (inactive) | > 100 µM (inactive) | > 100 µM (inactive) | > 100 µM (inactive) | > 100 µM (inactive) | > 100 µM (inactive) | > 100 µM (inactive) | > 100 µM (inactive) | > 100 µM (inactive) | > 100 µM (inactive) |
| CSC(=S)NNC(=O)c1ccncc1 | 61.4 µM (inactive) | 34.9 µM (inactive) | 22.2 µM (inactive) | 20 µM (inactive) | 25.3 µM (inactive) | 18.2 µM (inactive) | 14.6 µM (inactive) | 18.8 µM (inactive) | 16.1 µM (inactive) | 19.8 µM (inactive) | 18.9 µM (inactive) | 21.4 µM (inactive) | 22.7 µM (inactive) | 17.5 µM (inactive) | 23.8 µM (inactive) | 17.8 µM (inactive) | 23.7 µM (inactive) |
| O=[N+]([O-])c1cc(C(F)(F)F)cc([N+](=O)[O-])c1CCl | 9.53 µM (inactive) | 2.13 µM (inactive) | 6.81 µM (inactive) | 1.31 µM (inactive) | 4.9 µM (inactive) | 2.14 µM (inactive) | 2.32 µM (inactive) | 3.23 µM (inactive) | 1.69 µM (inactive) | 4.81 µM (inactive) | 4.84 µM (inactive) | 1.55 µM (inactive) | 7.35 µM (inactive) | 4.5 µM (inactive) | 3.72 µM (inactive) | 7.87 µM (inactive) | 0.456 µM (active) |
| C#CCNC(=O)NCCCCC(NC(=O)OCc1ccccc1)C(=O)OCc1ccccc1 (stereo unspecified) | 72.4 µM (inactive) | 17.7 µM (inactive) | > 100 µM (inactive) | 18 µM (inactive) | > 72.4 µM (inactive) | 75.3 µM (inactive) | > 100 µM (inactive) | > 100 µM (inactive) | > 64.3 µM (inactive) | > 60.5 µM (inactive) | > 100 µM (inactive) | > 83.8 µM (inactive) | > 100 µM (inactive) | > 72.4 µM (inactive) | 33.2 µM (inactive) | > 48.4 µM (inactive) | > 100 µM (inactive) |
| COC(OC)C(C)CC(=O)N(C)C (stereo unspecified) | > 100 µM (inactive) | > 100 µM (inactive) | > 100 µM (inactive) | > 100 µM (inactive) | > 100 µM (inactive) | > 100 µM (inactive) | > 100 µM (inactive) | – | – | > 100 µM (inactive) | > 100 µM (inactive) | > 100 µM (inactive) | > 100 µM (inactive) | > 100 µM (inactive) | – | > 100 µM (inactive) | > 100 µM (inactive) |
| COc1cccc(NC(=O)C(=O)C2C=CCS2(=O)=O)c1 (stereo unspecified) | > 100 µM (inactive) | > 100 µM (inactive) | > 100 µM (inactive) | > 100 µM (inactive) | – | > 100 µM (inactive) | > 100 µM (inactive) | > 100 µM (inactive) | > 100 µM (inactive) | > 100 µM (inactive) | > 100 µM (inactive) | > 100 µM (inactive) | > 100 µM (inactive) | 56 µM (inactive) | > 100 µM (inactive) | > 100 µM (inactive) | > 100 µM (inactive) |
| NC1=NC(=O)C(CC(=O)Nc2ccc(Cl)cc2Cl)S1 (stereo unspecified) | > 100 µM (inactive) | > 100 µM (inactive) | > 100 µM (inactive) | – | – | > 100 µM (inactive) | > 100 µM (inactive) | > 100 µM (inactive) | > 100 µM (inactive) | > 100 µM (inactive) | > 100 µM (inactive) | > 100 µM (inactive) | > 100 µM (inactive) | > 100 µM (inactive) | > 100 µM (inactive) | > 100 µM (inactive) | > 100 µM (inactive) |
| CCOC(=O)C1C=C2O[C@@H]3OC4(CCCCC4)O[C@@H]3C2C2C(=O)CCC(=O)[C@@]12C(=O)OC (stereo partly specified) | > 100 µM (inactive) | > 100 µM (inactive) | > 100 µM (inactive) | > 100 µM (inactive) | > 100 µM (inactive) | > 10 µM (inactive) | > 100 µM (inactive) | > 100 µM (inactive) | > 100 µM (inactive) | – | > 100 µM (inactive) | > 100 µM (inactive) | > 100 µM (inactive) | > 100 µM (inactive) | > 100 µM (inactive) | > 100 µM (inactive) | > 100 µM (inactive) |

Source: ChEMBL document CHEMBL1201862, “PubChem BioAssay data set” (2004)
